Data from article PMC6890717, “Conversion of Cytochrome P450 2D6 of Human Into a FRET-Based Tool for Real-Time Monitoring of Ajmalicine in Living Cells” (Frontiers in Bioengineering and Biotechnology, 2019).

Tests used:
[1] = system: E. coli BL21(DE3) cells; assay: Real-time monitoring of ajmalicine in bacterial cells expressing FLIP-Ajn; assay type: cell-based, Escherichia coli; conditions: 10 mM ajmalicine added externally; increased from 0.2; 30 min recording
Experimental: The developed recombinant construct pRSET-B_ECFP_CYP2D6_Venus (FLIP-Ajn) was introduced in E. coli BL21(DE3) cells and grown at 37°C (150 rpm) in an incubator shaker until O.D.600 of the bacterial growth reached 0.6. The cells were then treated with 0.5 mM IPTG and kept for 24 h at 21°C with continuous shaking for the expression of the nanosensor protein. The real-time monitoring of ajmalicine in the bacterial cells was carried out by the addition of 10 mM ajmalicine to the bacterial culture placed in the multi-well plates. Ratio of emission intensities of Venus/ECFP were recorded for 30 min and data were collected at every 5 min intervals. The control experiment includes the bacterial cells without ajmalicine. The excitation filters/slits used were same as described in the previous analysis.

[2] = system: Saccharomyces cerevisiae/URA3 strain BY4247; assay: Real-time monitoring of ajmalicine in yeast cells expressing FLIP-Ajn (confocal); assay type: cell-based; conditions: 10 mM ajmalicine
Experimental: Gateway-cloned pYES-DEST_ECFP_CYP2D6_Venus was transformed in Saccharomyces cerevisiae/URA3 strain BY4247. The transformed yeast cells were cultured in synthetic defined (SD) medium containing dextrose (2%) as a source of carbon and galactose (1%) for induction. The expressed yeast cells were subjected to confocal microscopic analysis with Leica TCS-SPE scan head and 63x objective lens with oil immersion system. The expressed culture was provided with 10 mM ajmalicine. Ratio of emission intensities of Venus/ECFP were recorded for 10 min and data were collected at every 20 s intervals.

[3] = system: HEK-293T cells; assay: Real-time monitoring of ajmalicine in transfected animal cells (confocal); assay type: cell-based, human; conditions: 10 mM ajmalicine; 0.4 ± 0.05 at 0 s
Experimental: The HEK-293T (human embryonic kidney) cells were cultured in Dulbecco's modified Eagle's medium containing 50 μg/ml ampicillin, 10% fetal calf serum, and CO2 in an incubator shaker at 37°C. Calcium phosphate-mediated transient transfection of HEK-293T cells with pCDNA_ECFP_CYP2D6_Venus was carried out in a 6-well culture plate and was allowed to express for 2 days. Washing buffer comprised of 50 mM NaCl, 1 mM MgCl2, 5 mM KCl, 5 mM D-glucose, and 25 mM HEPES (pH 7.2–7.4). After a gap of 2 days after transfection, the cultured cells were set for imaging analysis using a confocal microscope with 1.53 numerical aperture, cooled charge-coupled camera, and 63x oil immersion objective lens. The culture was supplemented with 10 mM ajmalicine and the images were taken. Ratio of emission intensities of Venus/ECFP were recorded for 10 min. The laser setting used for the analysis was same for both yeast and animal cells. Data were collected after an interval of 20 s and the exposure time set for acquiring images was 300 ms.

[4] = system: Catharanthus roseus cells; assay: FRET ratio in transformed plant suspension culture (confocal); assay type: cell-based; conditions: slow and consistent addition of ajmalicine to suspension culture; increased from 0.7
Experimental: Leaf explants were used in the study for initiating callus. The segments of Catharanthus roseus leaves were collected from the herbal garden of Jamia Hamdard, New Delhi. The collected explants were then washed continuously for 20 min under tap water. The explants were then treated with 0.5% cetrimide and 0.1% HgCl2 for 10 and 5 min, respectively. Further sequential washing with 70% alcohol and sterilized distilled water for 1 min were performed. The culturing of sterile explants was done on MS (Murashige and Skoog, [1962]) medium containing 0.5 μM 2,4-D, 3% sucrose, and 0.62% agar. The pH of the medium was maintained to 5.65, and the cultured tubes were kept in a culture room at 25 ± 2°C.
Agrobacterium tumefaceins strain EHA105 were transformed with pEarleyGate100_ECFP_CYP2D6_Venus, and the suspension culture was initiated after inoculating a single colony of transformed Agrobacterium strain in LB medium. The medium was supplemented with […], and […], and the culture was maintained at 28°C for 36 h. […]
Suspension culture of Catharanthus roseus transformed with pEarleyGate100_ECFP_CYP2D6_Venus was observed under a Leica confocal microscope with a 10x objective. The culture was subjected to fluorescence analysis, and the ratio of Venus/ECFP emission intensities was recorded after excitation at 430 nm. […]

[5] = system: FLIP-Ajn (ECFP_CYP2D6_Venus, human Cytochrome P450 2D6); assay: Specificity analysis of FLIP-Ajn with CYP2D6 inhibitors/substrates (FRET ratio); conditions: 10 mM compound added to FLIP-Ajn; change <0.2 regarded as insignificant
Experimental: Characterization of nanosensor was performed using microplate reader (Synergy H1, Biotek, USA). […] After spectral analysis, pH dependence, specificity, and affinity of the nanosensor were studied. […] Specificity testing of the developed nanosensor was carried out by the addition of 10 mM of various CYP2D6 inhibitors/substrates to FLIP-Ajn.

Row | FRET ratio change relative to control [5] | SMILES | FRET ratio after addition of ajmalicine [1] | increased FRET ratio ([2]; Figure 8) | FRET ratio after addition of ajmalicine ([2]; increased from 0.65 within 10 min) | FRET ratio at 400 s [3] | FRET ratio after addition of ajmalicine [4]
1 |  | COC(=O)C1=CO[C@@H](C)[C@H]2CN3CCc4c([nH]c5ccccc45)[C@@H]3C[C@H]12 [ajmalicine] | 0.4 | ~ 1 | 1.61 | 0.85 ± 0.05 | 3.9
2 | ~ 0.14 | COC(=O)C1=CO[C@@H](C)[C@H]2Cn3ccc4c5ccccc5nc-4c3C[C@H]12 [serpentine] |  |  |  |  | 
